These results are taken from patent US6451784B1 (priority 1996, dated 2002).

Entries after “also recorded” stand apart in the source; their conditions may differ. Where two headings read alike, the source gives them in different places. Starred links: 1 amine or outer side, 2 acyl side, 3 side chain; linkers in the order of their positions; H or OH if unused. Positions of bridges follow the written chain, without caps; N, C: chain ends. Non-standard residues stand in square brackets, D forms with d. Residues, ends and D or L forms follow the SMILES beside them. Chains are numbered I, II in the order given. Actinocin(9to1) = Cc1c2oc3c(C)ccc(C(=O)[*:1])c3nc-2c(C(=O)[*:2])c(N)c1=O; NMeV = CN[C@H](C(=O)O)C(C)C; Sar = CNCC(=O)O

The subject of series [1] is patients. The conditions noted are these: cited from earlier work.
Series [2] concerns neoplastic lung disease. Further details: species or system dogs. Particulars: dog, in vivo.
Series [3] deals with gross metastatic disease, micrometastatic hemangiosarcoma or micrometastatic primary lung cancer. More on the design: species or system dogs. Particulars: dog, in vivo.
For series [4] the following is noted: share of drug bound in a protein-containing solution; cited from earlier work.
In series [5] the test system is mice. The conditions noted are these: intraperitoneal pretreatment, bleomycin subcutaneous; cited from earlier work.
Series [6] relates to healthy animals. The conditions noted are these: in vivo; cited from earlier work.
The test system of series [7] is rats. The conditions noted are these: rat, in vivo.
The test system of series [8] is 68-2 Adenocarcinoma Cells.
The conditions of series [9]: dog, in vivo.

Turning to `CC(=O)[C@]1(O)Cc2c(O)c3c(c(O)c2[C@@H](O[C@H]2C[C@H](N)[C@H](O)[C@H](C)O2)C1)C(=O)c1ccccc1C3=O` [Idarubicin], the “Pulmonary toxicity of the IV administered drug” value (from here on “Pulmonary toxicity”) in series [1] is “no mention is made of pulmonary toxicity”.

As for `CCc1c2c(nc3ccc(OC(=O)N4CCC(N5CCCCC5)CC4)cc13)-c1cc3c(c(=O)n1C2)COC(=O)[C@]3(O)CC` [Irinotecan], in series [1], the “Pulmonary toxicity” value was “no mention is made of pulmonary toxicity”.

In the case of `O=P1(N(CCCl)CCCl)NCCCO1` (stereo not drawn) [CTX], the Results result in series [2] is listed as “SD lung”.

As for `Cc1c2oc3c(C)ccc(C(=O)N[C@@H]4C(=O)N[C@H](C(C)C)C(=O)N5CCC[C@H]5C(=O)N(C)CC(=O)N(C)[C@@H](C(C)C)C(=O)O[C@@H]4C)c3nc-2c(C(=O)N[C@@H]2C(=O)N[C@H](C(C)C)C(=O)N3CCC[C@H]3C(=O)N(C)CC(=O)N(C)[C@@H](C(C)C)C(=O)O[C@@H]2C)c(N)c1=O` [Dactinomycin] (I: T[dV]P[Sar][NMeV] / II: T[dV]P[Sar][NMeV]; ester I:1-I:C, II:1-II:C; linker I:N-II:N via Actinocin(9to1)), in [1], the “Pulmonary toxicity” value is reported as “no mention is made of pulmonary toxicity”.

With `CC(=O)O[C@H]1C(=O)[C@@]2(C)[C@H]([C@H](OC(=O)c3ccccc3)[C@]3(O)C[C@H](OC(=O)[C@H](O)[C@@H](NC(=O)c4ccccc4)c4ccccc4)C(C)=C1C3(C)C)[C@]1(OC(C)=O)CO[C@@H]1C[C@@H]2O` [Taxol, Paclitaxel], in series [1], the “Pulmonary toxicity” value is “pulmonary toxicity is not listed”. In series [2], the Results result is given as “SD (4 weeks) lung; also recorded: PD lung, Rx discontinued”. Moreover, in series [3], the “Outcome after inhalation treatment” value is listed as “no evidence of disease”; the Results entry was “SD (PR after; also recorded: PD (PR noted; also recorded: Alive and NED”.

As for `CC[C@]1(O)C[C@H]2CN(CCc3c([nH]c4ccccc34)[C@@](C(=O)OC)(c3cc4c(cc3OC)N(C=O)[C@H]3[C@@](O)(C(=O)OC)[C@H](OC(C)=O)[C@]5(CC)C=CCN6CC[C@]43[C@@H]65)C2)C1` [Vincristine, vincristine], in series [1], the “Pulmonary toxicity” value is reported as “no pulmonary toxicity noted”.

Turning to `Nc1ccn([C@@H]2O[C@H](CO)[C@@H](O)[C@@H]2O)c(=O)n1` [cytarabine], in series [4], the Protein binding affinity is recorded as 13%.

Turning to `C[C@@H](CN1CC(=O)NC(=O)C1)N1CC(=O)NC(=O)C1` [dexrazoxane], the “Protection against bleomycin-induced pulmonary damage” value in [5] is recorded as “reduced pulmonary alterations particularly fibrosis”.

As to `CO[C@@]12[C@H](COC(N)=O)C3=C(C(=O)C(C)=C(N)C3=O)N1C[C@@H]1N[C@@H]12` [Mutamycin, mitomycin], the “Toxic effects to the respiratory tract” value in [6] is “the most severe results”.

Take `COc1cc([C@@H]2c3cc4c(cc3[C@@H](O[C@@H]3O[C@@H]5CO[C@@H](C)O[C@H]5[C@H](O)[C@H]3O)[C@H]3COC(=O)[C@H]23)OCO4)cc(OC)c1O` [Etoposide, etoposide]: the “Pulmonary toxicity” value in [1] is reported as “no indication of pulmonary toxicity”.

As for carboplatin, in [7], the “Tolerated dose when given by inhalation” value is on record as “up to 1.9 mg/m^2”. In series [8] (Group 2, IV 180 mg/m^2, Day 61), the “Mean Lung Weight” value worked out at 1.37 ± 0.16 g and the “Mean Percentage of Lung W/Tumors” value turned out to be 10 ± 0%. Moreover, in [8] (Group 3, IV 300 mg/m^2, Day 61), the “Mean Lung Weight” value turned out to be 1.37 ± 0.11 g and the “Mean Percentage of Lung W/Tumors” value came out at 10 ± 0%. Besides, the “Lung covered by tumor” value in series [8] (rat, IV 180 or 300 mg/m^2, Day 61) was found to be 10%. In addition, the “Average lung and lung tumor weight” value in series [8] (rat, both low (180 mg/m^2) and high (300 mg/m^2) dose, Day 61) came out at 1.37 gram.

In the case of `O=P1(N(CCCl)CCCl)NCCCO1` (stereo not drawn) [Cyclophosphamide, cyclophosphamide], in series [6], the “Toxic effects to the respiratory tract” value was “only mild inflammation”.

Regarding `COc1cccc2c1C(=O)c1c(O)c3c(c(O)c1C2=O)C[C@@](O)(C(=O)CO)C[C@@H]3O[C@H]1C[C@H](N)[C@H](O)[C@H](C)O1` [Doxorubicin, doxorubicin], in series [9], the “Clearance from the lung after pulmonary administration” value was “not rapidly cleared from the lung”; the “Damage to the respiratory tract at necropsy” value is given as “no damage to the respiratory tract was observed”; the “Peak blood levels following inhalation exposure compared with IV” value is “over an order of magnitude lower”; the “Systemic doxorubicin level after about 4 hours, IV relative to pulmonary route” value is “about six times higher”. Besides, in series [9] (iv, 1 mg/kg), the “Initial plasma concentration at 2 minutes, IV relative to pulmonary route” value is on record as “about 1.5 orders of magnitude”. Besides, the “Pulmonary toxicity” value in series [1] is “no indication of pulmonary toxicity”. For the same compound, the “Development of lung metastases” value in series [2] is “no metastases developed in the lung for four months”. Moreover, in [3], the “Outcome after inhalation treatment” value is listed as “alive with no evidence of disease 81 days later”. In series [3] (iv), the “Disease in the lung” value is “no evidence of disease in the lung”.
